Results: patent US20170246130A1, “4-HYDROXYBENZOHYDARZIDE-A NEW CLASS OF ANGIOGENIC ENZYME THYMIDINE PHOSPHORYLASE INHIBITORS” (priority 2016, published 2017)
Entries after “also recorded” stand apart in the source; their conditions may differ. Read-outs that look alike come from different tables or passages of the source.

Tests used:
[1] = system: mouse fibroblast cell line (3T3); assay: MTT anti-proliferative assay, 3T3 cells; assay type: cell-based; settings: for inhibition of the proliferation of 3T3 cells (in words): in comparison to cyclohexamide; for IC50 ± SD (μM), 3T3 Cell Line / IC50: 3T3 cells; for IC50: read-out: IC50 ± SD (μM), 3T3 Cell Line
Experimental: (§1) Compounds found to be active in inhibiting thymidine phosphorylase were then subjected to MTT proliferation assay. Rapid proliferation is the property inherent to cancerous/tumor cells. This assay was carried out to study the effect of these compounds on proliferation of various cell lines. The cell lines which we targeted were mouse fibroblast cell line (3T3), and prostate cancer line (PC3).
(§2) Anti-proliferative activity of active compounds was evaluated by using the standard MTT (3-[4,5-dimethylthiazole-2-yl]-2,5-diphenyl-tetrazolium bromide) colorimetric assay in 96-well plate (Dimas et al., 1998).
(§3) It is a colorimetric assay that measures the reduction of MTT, by mitochondrial enzyme i.e. succinate dehydrogenase. The MTT enters into the mitochondria of cell, where it is reduced to an insoluble formazan salt (FIG. 8). The extent of MTT reduction was measured at 540 nm. As reduction of MTT can only occur in metabolically active cells, the level of activity is actually a measure of the viability of the cells (Vega-Avila and Pugsley, 2011).
(§4) Mouse fibroblast cell line 3T3 was cultured in DMEM, supplemented with 5% of FBS, 100 IU/mL of penicillin and 100 μg/mL of streptomycin, and kept at 37° C. in 5% CO2 incubator. For the preparation of cell culture, 100 μL/well of cell solution (5×10^4 cells/mL) was added into 96-well plate. The plate was incubated for overnight, and fresh medium was added after the removal of old medium. The test compounds were also added in different concentrations into the plate and plate was again incubated for 48 h. After the completion of this incubation period, 200 μL MTT (0.5 mg/mL) was added and plate was again incubated for 4 h, after this final incubation 100 μL of DMSO was added to each well. The level of MTT reduction to formazan was evaluated by change in absorbance at 540 nm using a micro plate reader (Spectra Max plus, Molecular Devices, CA, USA).

[2] = target: T1, thymidine phosphorylase (E. coli) (Escherichia coli, UniProt P07650); assay: In-vitro thymidine phosphorylase inhibition assay (spectrophotometric); assay type: biochemical; settings: recombinant E. coli TP, thymidine substrate, pH 7.0, 30° C., 290 nm; for IC50: read-out: IC50 (μM ± S.E.M.), thymidine phosphorylase inhibition
T1 construct: purchased Sigma Aldrich, USA; host or cells: Escherichia coli
T1 sequence (P07650 whole entry): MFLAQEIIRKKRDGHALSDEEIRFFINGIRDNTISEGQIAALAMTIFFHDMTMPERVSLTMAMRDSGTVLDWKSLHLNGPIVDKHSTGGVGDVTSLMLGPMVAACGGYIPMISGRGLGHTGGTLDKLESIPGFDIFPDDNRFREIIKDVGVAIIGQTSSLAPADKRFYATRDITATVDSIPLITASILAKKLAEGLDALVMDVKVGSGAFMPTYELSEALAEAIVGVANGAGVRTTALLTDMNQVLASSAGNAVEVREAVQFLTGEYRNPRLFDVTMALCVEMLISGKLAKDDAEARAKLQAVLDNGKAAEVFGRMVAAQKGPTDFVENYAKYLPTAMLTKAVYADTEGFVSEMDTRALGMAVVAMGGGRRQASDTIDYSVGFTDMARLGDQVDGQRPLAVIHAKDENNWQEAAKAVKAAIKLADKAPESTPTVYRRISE
Experimental: In vitro studies on thymidine phosphorylase were carried out in 96-well microtiter plate using Spectra Max-340 and Spectra Max-384 spectrophotometers (Molecular Devices, CA, USA). Deionized water used for buffer preparation was collected by Simplicity Water Purification System (Milipore).
Since human TP is not commercially available, we used commercially available recombinant E. coli TP (expressed in Escherichia coli) enzyme. Primary sequence of TP is mostly conserved throughout the evolution as mammalian TP share 39% sequence similarity with TP of E. coli. The mammalian enzyme also shared 65-70% similarity with the active site residues of E. coli TP enzyme (Bronckaers et al., 2009). Assay for thymidine phosphorylase inhibition was performed spectrophotometrically, following method of Bera et al. with some modifications (Bera et al., 2013).
The reaction catalyzed by thymidine phosphorylase involves reversible phosphorolysis of thymidine (FIG. 1), to thymine and 2-deoxyribose-1-phosphate (Bronckaers et al., 2009).
Reaction mixture contained 150 μL of potassium phosphate buffer (pH 7.0, 50 mM), 20 µL of enzyme (0.058 U/well) and 10 μL of test compound (0.5 mM in dimethylsulfoxide). The reaction mixture was incubated for 10 min at 30° C.
The enzyme inhibitory activities were calculated using the following formula:
Percent Inhibition=100−(O.D. of test/O.D. of control)×100
Where test is the enzyme activity with sample, and control is the enzyme activity without sample, and O.D. is optical density.
The IC50 of the compounds was calculated using EZ-Fit Enzyme Kinetic Program (Perrella Scientific Inc., Amhrest, U.S.A.).

[3] = system: prostate cancer line (PC3); assay: MTT anti-proliferative assay, PC3 cells; assay type: cell-based; settings: for IC50: read-out: IC50 ± SD (μM), PC3 Cell Line; for inhibition of the proliferation of PC3 cancer cells (in words): in comparison of doxorubucin
Experimental: as §1, §2, §3, §4

Row | SMILES | IC50 [2] | IC50 ± SD (μM), PC3 Cell Line ([3]; PC3 cells) | IC50 (μM ± S.E.M.), thymidine phosphorylase inhibition [2] | other results
1 | O=C(N/N=C/c1ccccc1O)c1ccc(O)cc1 [Compound 1, 4-Hydroxy-N′-[(E)-(2-hydroxyphenyl)methylidene]benzohydrazide] | 189.1 ± 0.1 µM | – | – | inhibition of the proliferation of 3T3 cells (in words) [1]: significantly inhibit; IC50 ([3]; Homo sapiens, PC-3, PC3 cells): 7.58 ± 0.462 µM; inhibition of the proliferation of PC3 cancer cells (in words) [3]: significantly inhibit
2 | O=C(N/N=C/c1cccc(O)c1)c1ccc(O)cc1 [Compound 2, 4-Hydroxy-N′-[(E)-(3-hydroxyphenyl)methylidene]benzohydrazide] | 180 ± 3 µM | Inactive | – | IC50 ± SD (μM), 3T3 Cell Line ([1]; 48 h): Inactive
3 | O=C(N/N=C/c1ccc(O)cc1)c1ccc(O)cc1 [Compound 3, 4-Hydroxy-N′-[(E)-(4-hydroxyphenyl)methylidene]benzohydrazide] | 199.4 ± 0.4 µM | Inactive | – | IC50 ± SD (μM), 3T3 Cell Line ([1]; 48 h): Inactive
4 | O=C(N/N=C/c1cccc(O)c1O)c1ccc(O)cc1 [Compound 4, 4-Hydroxy-N′-[(E)-(2,3-dihydroxyphenyl)methylidene]benzohydrazide] | 170.6 ± 0.5 µM | – | – | inhibition of the proliferation of 3T3 cells (in words) [1]: significantly inhibit; IC50 ([3]; Homo sapiens, PC-3, PC3 cells): 7.61 ± 0.49 µM; inhibition of the proliferation of PC3 cancer cells (in words) [3]: significantly inhibit
5 | O=C(N/N=C/c1cc(O)c(O)cc1O)c1ccc(O)cc1 [Compound 6, 4-Hydroxy-N′-[(E)-(2,4,5-trihydroxyphenyl)methylidene]benzohydrazide] | 208 ± 0.9 µM | Inactive | – | inhibition of the proliferation of 3T3 cells (in words) [1]: significantly inhibit
6 | O=C(N/N=C/c1c(O)cc(O)cc1O)c1ccc(O)cc1 [Compound 7, 4-Hydroxy-N′-[(E)-(2,4,6-trihydroxyphenyl)methylidene]benzohydrazide] | – | – | Inactive | –
7 | O=C(N/N=C/c1ccc(O)c(O)c1O)c1ccc(O)cc1 [Compound 8, 4-Hydroxy-N′-[(E)-(2,3,4-trihydroxyphenyl)methylidene]benzohydrazide] | – | – | Inactive | –
8 | COc1ccccc1/C=N/NC(=O)c1ccc(O)cc1 [Compound 9, 4-Hydroxy-N′-[(E)-(2-methoxyphenyl)methylidene]benzohydrazide] | 183.7 ± 1.5 µM | Inactive | – | IC50 ± SD (μM), 3T3 Cell Line ([1]; 48 h): Inactive
9 | COc1ccc(/C=N/NC(=O)c2ccc(O)cc2)cc1 [Compound 10, 4-Hydroxy-N′-[(E)-(4-methoxyphenyl)methylidene]benzohydrazide] | 186 ± 2 µM | Inactive | – | IC50 ± SD (μM), 3T3 Cell Line ([1]; 48 h): Inactive
10 | COc1ccc(/C=N/NC(=O)c2ccc(O)cc2)cc1OC [Compound 11, 4-Hydroxy-N′-[(E)-(3,4-dimethoxyphenyl)methylidene]benzohydrazide] | 204 ± 3 µM | Inactive | – | IC50 ± SD (μM), 3T3 Cell Line ([1]; 48 h): Inactive
11 | O=C(N/N=C/c1cccc(Cl)c1)c1ccc(O)cc1 [Compound 13, 4-Hydroxy-N′-[(E)-(3-chlorophenyl)methylidene]benzohydrazide] | 160.3 ± 1 µM | Inactive | – | IC50 ± SD (μM), 3T3 Cell Line ([1]; 48 h): Inactive
12 | O=C(N/N=C/c1ccc(Cl)cc1Cl)c1ccc(O)cc1 [Compound 15, 4-Hydroxy-N′-[(E)-(2,4-dichlorophenyl)methylidene]benzohydrazide] | – | – | Inactive | –
13 | Cc1ccccc1/C=N/NC(=O)c1ccc(O)cc1 [Compound 16, 4-Hydroxy-N′-[(E)-(2-methylphenyl)methylidene]benzohydrazide] | 177.2 ± 0.5 µM | Inactive | – | IC50 ± SD (μM), 3T3 Cell Line ([1]; 48 h): Inactive
14 | CN(C)c1ccc(/C=N/NC(=O)c2ccc(O)cc2)cc1 [Compound 17, 4-Hydroxy-N′-[(E)-[4-dimethylaminophenyl]methylidene]benzohydrazide] | – | – | unable to inhibit the enzyme; also recorded: Inactive | –
15 | CSc1ccc(/C=N/NC(=O)c2ccc(O)cc2)cc1 [Compound 18] | – | – | unable to inhibit the enzyme; also recorded: Inactive | –
16 | COc1ccc(O)c(/C=N/NC(=O)c2ccc(O)cc2)c1 [Compound 20, 4-Hydroxy-N′-[(E)-(2-hydroxy-5-methoxyphenyl)methylidene]benzohydrazide] | 172 ± 2.7 µM | – | – | inhibition of the proliferation of 3T3 cells (in words) [1]: significantly inhibit; IC50 ([3]; Homo sapiens, PC-3, PC3 cells): 10.5 ± 0.551 µM; inhibition of the proliferation of PC3 cancer cells (in words) [3]: significantly inhibit
17 | CCOc1cccc(/C=N/NC(=O)c2ccc(O)cc2)c1O [Compound 21, 4-Hydroxy-N′-[(E)-(3-ethoxy-2-hydroxyphenyl)methylidene]benzohydrazide] | 190.3 ± 0.4 µM | – | – | inhibition of the proliferation of 3T3 cells (in words) [1]: significantly inhibit; IC50 ([3]; Homo sapiens, PC-3, PC3 cells): 6.54 ± 0.278 µM; inhibition of the proliferation of PC3 cancer cells (in words) [3]: significantly inhibit
18 | O=C(N/N=C/c1cc(Br)ccc1O)c1ccc(O)cc1 [Compound 22, 4-Hydroxy-N′-[(E)-(5-bromo-2-hydroxyphenyl)methylidene]benzohydrazide] | – | – | Inactive | –
19 | O=C(N/N=C/c1cc(Cl)ccc1O)c1ccc(O)cc1 [Compound 23, 4-Hydroxy-N′-[(E)-(5-chloro-2-hydroxyphenyl)methylidene]benzohydrazide] | – | – | Inactive | –
20 | C/C(=N\NC(=O)c1ccc(O)cc1)c1ccccc1O [Compound 25, 4-Hydroxy-N′-[(E)-1-(2-Hydroxyphenyl)ethylidene]benzohydrazide] | – | – | Inactive | –
21 | C/C(=N\NC(=O)c1ccc(O)cc1)c1ccc(O)cc1O [Compound 26, 4-Hydroxy-N′-[(E)-1-(2,4-dihydroxyphenyl)ethylidene]benzohydrazide] | – | – | Inactive | –
22 | C/C(=N\NC(=O)c1ccc(O)cc1)c1cc(O)ccc1O [Compound 28, 4-Hydroxy-N′-[(E)-1-(2,5-dihydroxyphenyl)ethylidene]benzohydrazide] | 183.4 ± 0.9 µM | Inactive | – | inhibition of the proliferation of 3T3 cells (in words) [1]: significantly inhibit
23 | COc1cccc(/C(C)=N/NC(=O)c2ccc(O)cc2)c1O [Compound 29, 4-Hydroxy-N′-[(E)-1-(2-hydroxy-3-methoxyphenyl)ethylidene]benzohydrazide] | 174.2 ± 1 µM | – | – | IC50 ([1]; Mus musculus, NIH3T3, 48 h): 18.6 ± 0.6 µM; inhibition of the proliferation of 3T3 cells (in words) [1]: significantly inhibit; IC50 ([3]; Homo sapiens, PC-3, PC3 cells): 8.48 ± 0.592 µM; inhibition of the proliferation of PC3 cancer cells (in words) [3]: significantly inhibit
24 | C[C@@H]1C[C@@H]([C@H](O)CC2CC(=O)NC(=O)C2)C(=O)[C@@H](C)C1 [Cyclohexamide, reference compound] | – | – | – | IC50 ([1]; 48 h): 0.26 ± 0.1 µM
25 | COc1cccc2c1C(=O)c1c(O)c3c(c(O)c1C2=O)C[C@@](O)(C(=O)CO)C[C@@H]3O[C@H]1C[C@H](N)[C@H](O)[C@H](C)O1 [Doxorubucin, reference compound] | – | – | – | IC50 ([3]; PC3 cells): 0.91 ± 0.1 µM
